Results: publication PMC9867837 (Cancer letters, 2022)

Assays:
[1] = Human hepatocyte stability; assay type: in vitro ADME
Method: The in vivo activity of a compound is influenced by its overall bioavailability, which is also driven by parameters, such as solubility, permeability, and metabolism. […] These values are all above the industry cut-off of 60 μg/ml. […] It has CLint in human hepatocytes of 16 μL/min/10^6 cells, which falls into moderate stability range [43].

[2] = biological target: T1, pYStat3C328A (Homo sapiens, UniProt P40763, C328A); assay: EMSA with purified mutant pYStat3C328A; assay type: biochemical; settings: 3 μM H182, 30 min
T1 construct: made in house; host or cells: E. coli BL21(DE3) TKB1 (inducible tyrosine kinase)
T1 sequence (P40763 127-711 C328A): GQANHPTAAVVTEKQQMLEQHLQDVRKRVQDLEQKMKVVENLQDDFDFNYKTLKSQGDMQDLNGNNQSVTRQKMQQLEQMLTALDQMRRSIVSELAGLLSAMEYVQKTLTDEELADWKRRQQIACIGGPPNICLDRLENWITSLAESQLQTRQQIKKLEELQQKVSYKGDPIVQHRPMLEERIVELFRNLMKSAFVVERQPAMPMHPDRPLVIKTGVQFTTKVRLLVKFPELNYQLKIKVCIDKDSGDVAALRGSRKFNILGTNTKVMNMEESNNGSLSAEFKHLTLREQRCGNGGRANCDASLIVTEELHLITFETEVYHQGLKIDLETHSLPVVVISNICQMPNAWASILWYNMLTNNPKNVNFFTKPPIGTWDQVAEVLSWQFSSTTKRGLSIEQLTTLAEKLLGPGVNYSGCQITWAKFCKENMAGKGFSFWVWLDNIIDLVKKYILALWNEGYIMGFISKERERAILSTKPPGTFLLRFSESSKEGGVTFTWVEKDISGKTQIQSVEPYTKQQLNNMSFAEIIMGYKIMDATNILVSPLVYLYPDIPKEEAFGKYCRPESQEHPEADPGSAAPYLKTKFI
From the text: This construct was used to generate the mutants, Stat3C328A, Stat3C426A, Stat3C468A, and Stat3C542S, as described in detail in Supplementary Information “Methods”.
The expression of un-phosphorylated and tyrosine phosphorylated His-tagged recombinant wtStat3 and mutant Stat3 proteins in BL21 (DE3) bacterial cells is described in detail in Supplementary Information “Methods”.
Given the MS data, we conducted site-directed mutagenesis analysis for the effects of Cys mutations (Cys-to-Ala or Cys-to-Ser mutations) on the inhibitory activities or potencies of the compounds. […]
In another case, the nuclear extract was pre-incubated with the radiolabeled probe for 30 min at 30 °C prior to incubation with increasing concentration of H182 at room temperature for 30 min and subjecting to EMSA analysis. Bands corresponding to Stats DNA- binding activities were scanned and quantified using ImageJ and plotted as a percentage of control (vehicle) against the concentration of the inhibitor, from which the IC50 values were derived . […]
These studies were performed as previously reported using the v-Src -transformed NIH3T3/v-Src fibroblasts [1 -5] . […] Luciferase activity was normalized to total protein concentration of cell lysate, which was determined by Bradford assay (Bio-Rad, Hercules, CA) . […]

O=C([C@H]1CCN1S(=O)(=O)c1c(F)c(F)c(F)c(F)c1F)N(Cc1ccc(C2CCCCC2)cn1)c1ccc2c(=O)[nH]ncc2c1 [Compound H182]
Metabolic Stability Human Hepatocytes CLint [1]: 14.6 μL/min/10^6 cells | half-life ([1]; hepatocytes, read-out: Human Hepatocytes t1/2): 1.13 h | hepatocyte CLint ([1]; hepatocytes, read-out: Metabolic Stability Human Hepatocytes CLint): 16 µL/min/1e6 cells | Effect on DNA-binding activity of pYStat3C328A [2]: strong inhibition
